Source: ChEMBL document CHEMBL5104165, “Novel fragment-derived colchicine-site binders as microtubule-destabilizing agents” (Eur J Med Chem, 2022)
pIC50: −log10 of the molar value. Calls of active or inactive are those of the source. The rule behind the calls is not given here.

How the values were obtained:
HeLa = test: Cytotoxicity against human HeLa cells assessed as inhibition of cell growth incubated for 72 hrs by resazurin dye based assay; type: functional
Tubulin (Homo sapiens) [1] = target: T1, Tubulin (Homo sapiens) (UniProt P68371+Q9H4B7+P0DPH7+P68366+Q13509+Q71U36+P04350+Q3ZCM7+P07437+P68363+Q9BQE3+Q6PEY2+Q13885+Q9BVA1+Q9BUF5); test: Disruption of microtubules in human HMF3A cells assessed as increase in cell size at 5 uM measured after 4 hrs by immunostaining based confocal microscopic analysis
Tubulin (Homo sapiens) [2] = target: T1, Tubulin (Homo sapiens); test: Disruption of microtubules in human HMF3A cells at 5 uM measured after 1 hr by immunostaining based confocal microscopic analysis; type: cell-based
Tubulin (Homo sapiens) [3] = target: T1, Tubulin (Homo sapiens); test: Disruption of microtubules in human HMF3A cells assessed as increase in nucleus size at 5 uM measured after 4 hrs by immunostaining based confocal microscopic analysis; type: cell-based

## COC(=O)c1ccc2[nH]c(NCc3ccco3)nc2c1
HeLa
  pIC50: 5.15

## c1coc(CNc2nc3ccccc3[nH]2)c1
HeLa
  pIC50: 4.27

## Cc1ccc2[nH]c(NCc3ccco3)nc2c1
HeLa
  pIC50: 5.25

## Clc1ccc2[nH]c(NCc3ccco3)nc2c1
HeLa
  pIC50: 5.35

## N#Cc1ccc2[nH]c(NCc3ccco3)nc2c1
HeLa
  pIC50: < 4.10

## Cc1ccc(CNc2nc3ccccc3[nH]2)o1
HeLa
  pIC50: 4.65

## FC(F)(F)c1ccc2[nH]c(NCc3ccco3)nc2c1
HeLa
  pIC50: 5.00

## COc1ccc2[nH]c(NCc3ccco3)nc2c1
HeLa
  pIC50: 5.00

## c1ccc(Oc2ccc3[nH]c(NCc4ccco4)nc3c2)cc1
Tubulin (Homo sapiens) [1]
  Activity: Active
HeLa
  pIC50: 6.03
Tubulin (Homo sapiens) [2]
  Activity: Active
Tubulin (Homo sapiens) [3]
  Activity: Active
